Results from a melting point compilation (Tetko et al.; mined from patent text by program, amines drawn as free bases though some values may be those of a salt).

| melting point | SMILES |
| --- | --- |
| 204 °C | CC(=O)N1CCc2c1cc(C)c(S(=O)(=O)C[N+](=O)[O-])c2C |
| 116 to 118 °C | OCC1CCCN(c2nc(-c3ccccc3)nc3ccccc23)C1 (centres undefined) |
| 128 to 130 °C | COc1ccc(-c2nc3c(O)cccc3s2)cc1 |
| 134 to 135 °C | CCCCCS(=O)(=O)NC(=O)/C=C/c1ccc(OCCOC)cc1Oc1ccc(C(F)(F)F)cc1Cl |
| 92 to 94 °C | CCn1c(Cl)c(C=NO)c(=O)n(CC)c1=O |
| 70 to 73 °C | BrCc1ccc(OCC(c2ccccc2)c2ccccc2)cc1 |
| 225 to 227 °C | O=C1c2cc(O)ccc2N(Cc2ccccc2)C2=NCCN12 |
| 140 to 141 °C | O=C(O)COCC(=O)N1CCC(C(c2ccccc2)c2ccccc2)CC1 |
| 104 to 106 °C | O=C1CSC=C2c3ccccc3C=CN12 |
| 91 to 92 °C | C=C1CCCCCCC(C(=O)OCC)NC1=O (centres undefined) |
| 200 to 202 °C | COc1cccc(NC(=O)c2sccc2S(=O)(=O)Nc2onc(C)c2Br)c1 |
| 138 °C | CC(C)C1CC(=O)C(C(=O)Nc2ccc(Cl)c(Cl)c2)C(=O)C1 (centres undefined) |
| 89 to 90 °C | COC(=O)c1ccc(Cl)cc1NC(=O)CSc1cccc(Br)c1 |
| 51 to 54 °C | COc1cc2c(cc1O)C(OC)CN(Cc1cc(OC)c(OC)c(OC)c1)C2 (centres undefined) |
| 278 to 279 °C | O=C(c1ccc(Nc2ccnc3cc(C(F)(F)F)ccc23)cc1)N1CCC(O)(c2cccc(C(F)(F)F)c2)CC1 |
| 109 to 111 °C | Cc1cc(OCc2ccccc2)cc(OCCCc2ccccc2)c1C(=O)O |
| 61 to 64 °C | FC(F)(F)c1cccc(C2=CCNc3ccnn32)c1 |
| 90 to 94 °C | COc1cc(I)c(F)cc1Cl |
| 96.7 °C | CCCOc1ccc(C=CC(=O)c2c(O)cc(OC)cc2OC)cc1 |
| 214 to 216 °C | Cc1cccc(C)c1N(CCCC(=O)O)C(=O)CN(C(=O)c1ccc(Cl)cc1)c1c(C)cccc1C |
| 182 to 184 °C | CNC(=O)OCc1c(COC(=O)NC)c(-c2ccc(OC)cc2)n2c1Cc1ccccc1C2 |
| 269 to 271 °C | O=C(O)c1ccc(-c2ccc3c(c2)CCN(CCN2CCCC2)C3)cc1 |
| 213 to 214 °C | COc1ccc2c(c1)sc1nc(Nc3ccccc3)nc(=Nc3ccccc3)n12 |

| melting point | SMILES |
| --- | --- |
| 87 to 88 °C | CCCCCC[C@@H]1C[C@H](c2ccc(O)cc2)C(=O)O1 |
| 108 to 110 °C | COC(=O)c1cc(Cl)c(Oc2ccc(OC)c(Cc3ccc(F)cc3)c2)c(Cl)c1 |
| 89.5 to 90 °C | CCCCCCCCCCCCCCCCNC(=O)CCCO |
| 116 to 117 °C | CCCCCCCCCCCCCCc1ccc(S(=O)(=O)Nc2nncs2)cc1 |
| 127 to 128 °C | CCOC(=O)Cc1ccc(-c2nc(COc3ccc(COc4nn(-c5ccccc5)cc4/C=C/c4nc(CC)sc4C)cc3OC)c(C)o2)cc1 |
| 109 to 111 °C | C#CCN1C(=O)C2(CCCC2)c2ccccc21 |
| 195 to 196 °C | COC(=O)Cc1cc2ccc(OC)cc2[nH]c1=O |
| 188 to 190 °C | CSc1cccc2c1Sc1ccc(O)cc1N2 |
| 199 to 202 °C | CCc1nc2c(N)nc3ccccc3c2n1CCCC#Cc1ccccc1 |
| 87 to 89 °C | Oc1ccc2c(c1)OCC(c1cccc(C(F)(F)F)c1)C2c1ccc(OCCN2CCCC2)cc1 (centres undefined) |
| 164 to 166 °C | Cc1nc(C)c(-c2ccnc(Nc3ccc(N4CCOCC4)c(C)c3)n2)s1 |
| 66 °C | COC(=O)c1cccc(-c2ncc(OCCCN(C)C)cn2)c1 |
| 106 to 108 °C | Clc1ccc(C2=CCCc3cc(Cl)c(Cl)cc32)cc1 |
| 150 to 151 °C | Nc1nc(SCc2ccccc2)c2ncn(C3CC(F)C(CO)O3)c2n1 (centres undefined) |
| 51 to 53 °C | CCOC(COc1ccc(Cl)c2cccnc12)OCC |
| 270 to 272 °C | Cc1cnc2nc(C(F)(F)F)[nH]c(=O)c2c1 |
| 121 to 123 °C | S=C(Nc1cccc(Cl)c1)N1CCSC1=Nc1cccc(Cl)c1 |
| 336 to 339 °C | Cc1cc(Cl)ccc1-n1nc(O)c2c(=O)c3ccc(Cl)cc3[nH]c2c1=O |
| 71 to 78 °C | CC(C)(C)OC(=O)CC[C@H](NC(=O)c1ccc(NCc2cnc(N)c(C#N)n2)cc1)C(=O)OC(C)(C)C |
| 136 to 138 °C | CS(=O)(=O)c1nc(Cl)c(Cc2ccccc2)c(N2CCCC2)n1 |
| 189 to 191 °C | CS(=O)(=O)c1ccc(-c2sc(COc3ccccc3Cl)nc2-c2ccc(F)cc2)cc1 |
| 82 to 84 °C | CCOC(=O)c1csc(-c2ccccc2[N+](=O)[O-])n1 |
| 38 to 42 °C | COc1cccc(CN2CCCCc3cc(CN(O)C(N)=O)ccc32)c1 |

| melting point | SMILES |
| --- | --- |
| 68 °C | COc1ccc(S(=O)(=O)C(CCCCOc2ccccc2)(Cc2cccnc2)C(=O)NO)cc1 (centres undefined) |
| 166 °C | Cc1ccc(S(=O)(=O)NC(=O)Nc2ccccc2)cc1 |
| 311 to 317 °C | O=C(O)c1ccc(Nc2nccc(-c3cccnc3)n2)cc1 |
| 89 °C | COC1(c2nc(Sc3ccc(/C(C)=N/O)cc3)cs2)CCOCC1 |
| 103 °C | COC(=O)c1cccc2[nH]cc(CC[N+](=O)[O-])c12 |
| 203 to 205 °C | O=C1Nc2cccnc2N(C(=O)CN2CCCCC2CN2CCOCC2)c2ccccc21 (centres undefined) |
| > 250 °C | O=Cc1c[nH]c2c1ccc1c3cc(Br)ccc3[nH]c12 |
| 110 to 112 °C | COc1ccc(CSc2ccncc2)c2c1OCC2C (centres undefined) |
| 90.5 to 91.5 °C | CC(C(=O)N(C)C)n1cc(Br)c(-c2ccccc2)n1 (centres undefined) |
| 98 to 100 °C | Cc1nc2cccc(S(=O)(=O)n3c(COC(C)(C)C(=O)O)cc4cc(C(F)(F)F)ccc43)c2s1 |
| 178 to 179 °C | COc1cc2ncnc(N3CCN(C(=O)NCc4ccsc4)CC3)c2cc1OC |
| 143 °C | CC(=O)OC1CSC(Oc2cncc(-c3c(F)cc(F)cc3F)c2)C(OC(C)=O)C1OC(C)=O (centres undefined) |
| 156 to 158 °C | NCC1CCc2[nH]c3cc(Cl)c(Cl)cc3c2C1 (centres undefined) |
| 141 to 142 °C | Cn1nnnc1C(CO)=C(c1ccc(F)cc1)c1ccc(F)cc1 |
| 80 to 82 °C | CCN(CC)CCNC(=O)c1cccc2cc3ccc(I)cc3nc12 |
| 45 °C | CC(C)c1nc(N(C(C)C)C(C)C)c([N+](=O)[O-])c(N(C(C)C)C(C)C)n1 |
| 160 to 162 °C | COC(=O)c1sc(C(C)(C)C)cc1NC(=O)Nc1ccc(F)cc1 |
| > 220 °C | CSc1nc(O)cc(-c2cccc(C#N)c2)n1 |
| 156 to 157 °C | C=Cc1c(F)c(N2CC3CN(C)CC3C2)c(F)c2c1c(=O)c(C(=O)O)cn2C1CC1 (centres undefined) |
| 108 to 110 °C | NC(=O)c1n[nH]c(-c2ccc(Cl)cc2)c1-c1ccc(S(N)(=O)=O)cc1 |
| 208 to 211 °C | O=C(O)c1c(Cl)c([N+](=O)[O-])cc([N+](=O)[O-])c1Nc1ccc(OCc2ccccc2)cc1 |
| 162 to 165 °C | O=[N+]([O-])c1ccc(SCCn2cnnc2)cc1 |
| 92.7 to 93.5 °C | CC(C)=CCOc1ccc(OCC=C(C)C)c(C(=O)NCCc2ccncc2)c1 |

| melting point | SMILES |
| --- | --- |
| 162 to 164 °C | Cc1c(S(=O)(=O)C(F)(F)F)cc(-c2ccc(S(C)(=O)=O)cc2)n1-c1ccc(F)cc1 |
| 192 to 195 °C | CN(C)Cc1ccc(-c2cccc(-c3ccnc4c(C(=O)c5cccs5)cnn34)c2)cc1 |
| 150 to 151 °C | CN(C)CCNC(=O)c1ccc(S(N)(=O)=O)cc1 |
| 160 to 161 °C | CC(=O)SCC(Cc1ccccc1)C(=O)Nc1cc(C)cc(C(=O)O)c1 (centres undefined) |
| > 300 °C | COc1cc(Nc2c(C#N)cnc3cc(-c4ccc(C(=O)O)cc4)sc23)c(Cl)cc1Cl |
| 100 to 102 °C | CCCCOC(=O)c1ccc(OC(=O)C(=O)Oc2ccc(C(=O)OCCCC)cc2)cc1 |
| 264 to 266 °C | CC1(C(=O)N2CCOCC2)COC(c2nc(-c3ccc(F)cc3)c(-c3ccnc(S(C)(=O)=O)n3)[nH]2)OC1 (centres undefined) |
| 240 to 242 °C | COC(=O)C(CC(N)C(=O)O)CC(N)N1C=CC=CC1 (centres undefined) |
| 175 °C | O=c1c2cnc3ccc(C(F)(F)F)cc3c2on1-c1ccccc1 |
| 78 to 79 °C | COc1ccc(CC(=O)O)cc1C12CC3CC(CC(C3)C1)C2 |
| 171 to 173 °C | CN(C)S(=O)(=O)c1cc(-c2csc(=Nc3ccc4c(c3)OCO4)n2C)ccc1Cl |
| 124 °C | CCOC(=O)c1ccc(NS(C)(=O)=O)c([N+](=O)[O-])c1 |
| 162 to 163 °C | CCOC(=O)C1=C(N)NC(N)=C(C(=O)OCC)C1c1cccc2ccccc12 |
| 40 °C | CCN(CC)C(=O)Oc1cc(-c2ccccc2)nc2ccc([N+](=O)[O-])cc12 |
| 86 to 90 °C | O=Cc1ccc(OCc2csc(-c3ccccc3)n2)cc1 |
| 50 to 52 °C | CCCN(CCC)C(=O)n1cnc(S(=O)CCC)n1 (centres undefined) |
| 289 to 290 °C | COc1cc(OC)c2c(=O)[nH]c(-c3cccc(-c4ccc(S(C)=O)s4)c3)nc2c1 (centres undefined) |
| 153 to 155 °C | CCOc1cc(C)c(Cl)cc1S(N)(=O)=O |
| 54 to 55 °C | CCOC(=O)CC(=O)N(C)c1ccccc1[N+](=O)[O-] |
| 193 to 196 °C | COc1cc(NC(=O)NS(=O)(=O)c2ccccc2Cl)nc(OC)n1 |
| 260 to 262 °C | CCOc1ccc(-c2c(Cl)c(CN3C(=O)CCC3=O)nc3sc4c(c23)CCN(C(C)=O)C4)cc1 |
| 141 °C | CON(Cc1ccc(F)cc1)C(=O)c1nc2n(c(=O)c1OCc1ccccc1)CCOC2(C)C |

| SMILES | melting point |
| --- | --- |
| CC(C)(C)SC(=O)C=CC1C(C(=O)OCc2ccc(F)c(Oc3ccccc3)c2)C1(C)C (centres undefined) | 82 °C |
| CCc1c(C(=O)C(N)=O)c2c(NCC(=O)O)cccc2n1Cc1ccccc1 | 151 to 157 °C |
| NC(=O)c1ncn2c1[C@@H]1CCN1C(=O)c1c-2ccc(F)c1Cl | 296 to 298 °C |
| O=C1c2cc(Cl)ccc2-n2cncc2[C@@H]2CCCN12 | 216 to 217 °C |
| Oc1cccc2c1Oc1ccccc1C21CCN(CC=CCl)CC1 | 153 to 155 °C |
| CCCCCCn1c(C)c(C(=O)N(CCCC)CCCC)c2c(CN3CCCCC3)c(O)c(C(=O)CC)cc21 | 124 to 125 °C |
| Cc1cc(O)cc2c1N(C)C1N(C)CCC21C (centres undefined) | 146 to 148 °C |
| O=C1CN2CCOC2(c2ccccc2F)c2cc(Cl)ccc2N1 (centres undefined) | 183 to 184 °C |
